Experimental data: the NIST ThermoML archive (doi:10.1021/acs.jced.7b00099)
“And” between values parts separate entries of the source, which are not always exact repeats. Equal values may be shown once.

Conditions: Liquid, Closed cell (Static) method

CCCCCCCCCCCCCC(=O)OC [methyl tetradecanoate]
Conditions | vapor or sublimation pressure [kPa]
353.15 K | 0.0133
363.15 K | 0.0267
373.15 K | 0.0516
383.15 K | 0.0959
393.15 K | 0.1723
403.15 K | 0.3003
413.15 K | 0.509
423.15 K | 0.839
433.15 K | 1.35
443.15 K | 2.123
453.15 K | 3.27

CCCCCCCCCCCCCC [tetradecane]
Conditions | vapor or sublimation pressure
351.75 K | 0.124 kPa
353.15 K | 0.1355 kPa and 0.1354 kPa
361.8 K | 0.232 kPa
361.89 K | 0.232 kPa
363.15 K | 0.2517 kPa
371.91 K | 0.422 kPa
373.15 K | 0.4469 kPa and 0.4472 kPa
381.93 K | 0.717 kPa
382.07 K | 0.716 kPa
383.15 K | 0.762 kPa and 0.763 kPa
391.95 K | 1.186 kPa
392 K | 1.186 kPa
393.15 K | 1.254 kPa and 1.255 kPa
402.74 K | 1.947 kPa
403.15 K | 1.998 kPa
412.69 K | 3.029 kPa
413.15 K | 3.09 kPa and 3.086 kPa
422.55 K | 4.545 kPa
423.15 K | 4.652 kPa and 4.642 kPa
432.39 K | 6.661 kPa
433.15 K | 6.836 kPa and 6.812 kPa
442.49 K | 9.461 kPa
443.15 K | 9.776 kPa
452.49 K | 13.46 kPa
453.15 K | 13.75 kPa

CCCCCCCCCCCC(=O)OC [methyl dodecanoate]
Conditions | vapor or sublimation pressure [kPa]
353.15 K | 0.0644
363.15 K | 0.1217
373.15 K | 0.2212
383.15 K | 0.388
393.15 K | 0.657
403.15 K | 1.08
413.15 K | 1.728
423.15 K | 2.694
433.15 K | 4.104

CCCCCCCCCCCCCCCC(=O)OC [methyl hexadecanoate]
Conditions | vapor or sublimation pressure [kPa]
373.15 K | 0.0158
383.15 K | 0.0294
393.15 K | 0.0535
403.15 K | 0.095
413.15 K | 0.1644
423.15 K | 0.2789
433.15 K | 0.4635
443.15 K | 0.756
453.15 K | 1.21
